# Where two headings read alike, the source gives them in different places.
# Target: T1, hCCR4 (Chem5-hCCR4 cells) (Homo sapiens, UniProt P51679)
# T1 sequence (P51679 1-360): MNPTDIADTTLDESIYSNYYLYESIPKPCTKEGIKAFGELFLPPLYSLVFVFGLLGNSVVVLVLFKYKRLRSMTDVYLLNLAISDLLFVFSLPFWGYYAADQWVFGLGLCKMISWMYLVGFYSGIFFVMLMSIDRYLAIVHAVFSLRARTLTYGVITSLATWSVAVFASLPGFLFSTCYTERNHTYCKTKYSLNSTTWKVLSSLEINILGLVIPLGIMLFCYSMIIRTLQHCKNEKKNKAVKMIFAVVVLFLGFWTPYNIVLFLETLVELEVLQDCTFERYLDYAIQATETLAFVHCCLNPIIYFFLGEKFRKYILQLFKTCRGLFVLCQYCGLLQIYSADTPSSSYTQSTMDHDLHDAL
# Assay: Calcium flux assay (CCL22-stimulated, FLIPR Calcium 6 dye)
# Type: cell-based
# Settings: read-out: Potency (IC50)
# Summary of the method: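 Chem5-hCCR4 cells were serum-starved 2 h and loaded 2 h with Calcium 6 dye plus 2.5 mM probenecid. They were then preincubated 1 h at 37 °C with compound (0.5% DMSO). CCL22 was added from a 7.5 nM working solution (5× EC80), and ΔF/Fmin at 485/525 nm was fitted 4-parameter for IC50.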
Compound,"IC50 (Table 3, CCL22 1.5 nM)","IC50 (Table 5, CCL22 1.5 nM)"
"C[C@@H](Nc1nc(N2CC([C@H]3CCCN(CCO)C3)C2)cnc1C#N)c1ccc(Cl)cc1Cl [Example 1, 3-(((R)-1-(2,4-dichlorophenyl)ethyl)amino)-5-(3-((R)-1-(2-hydroxyethyl)piperidin-3-yl)azetidin-1-yl)pyrazine-2-carbonitrile]",< 100 nM,–
"C[C@@H](Nc1nc(N2CC([C@H]3CCCN([C@H]4C[C@](C)(C(=O)O)C4)C3)C2)nc2sccc12)c1ccc(Cl)cc1Cl [Example 29, (1R,3r)-3-((R)-3-(1-(4-(((R)-1-(2,4-dichlorophenyl)ethyl)amino)thieno[2,3-d]pyrimidin-2-yl)azetidin-3-yl)piperidin-1-yl)-1-methylcyclobutane-1-carboxylic acid]",< 100 nM,–
"C[C@@H](Nc1nc(N2CC([C@H]3CCCN([C@H]4C[C@@H](C(=O)O)C4)C3)C2)nc2ccsc12)c1ccc(Cl)cc1Cl [Example 31, (1S,3s)-3-((R)-3-(1-(4-(((R)-1-(2,4-dichlorophenyl)ethyl)amino)thieno[3,2-d]pyrimidin-2-yl)azetidin-3-yl)piperidin-1-yl)cyclobutane-1-carboxylic acid]",< 100 nM,–
"C[C@@H](Nc1nc(N2CC([C@H]3CCCN(C4CCCC4C(=O)O)C3)C2)cnc1C#N)c1ccc(Cl)cc1Cl (stereo partly drawn) [Example 6, 2-((R)-3-(1-(5-cyano-6-(((R)-1-(2,4-dichlorophenyl)ethyl)amino)pyrazin-2-yl)azetidin-3-yl)piperidin-1-yl)cyclopentane-1-carboxylic acid]",100 to 500 nM,–
"C[C@@H](Nc1nc(N2CC([C@H]3CCCN([C@H]4C[C@@H](C(=O)O)C4)C3)C2)cnc1C#N)c1ccc(Cl)cc1Cl [Example 5, (1S,3s)-3-((R)-3-(1-(5-cyano-6-(((R)-1-(2,4-dichlorophenyl)ethyl)amino)pyrazin-2-yl)azetidin-3-yl)piperidin-1-yl)cyclobutane-1-carboxylic acid]",100 to 500 nM,–
"C[C@@H](Nc1nc(N2CC([C@H]3CCCN([C@H]4C[C@](C)(C(=O)O)C4)C3)C2)ncc1Br)c1ccc(Cl)cc1Cl [Example 13, (1R,3r)-3-((R)-3-(1-(5-bromo-4-(((R)-1-(2,4-dichlorophenyl)ethyl)amino)pyrimidin-2-yl)azetidin-3-yl)piperidin-1-yl)-1-methylcyclobutane-1-carboxylic acid]",< 100 nM,–
"CCC(O)c1cnc(N2CC([C@H]3CCCN([C@H]4C[C@](C)(C(=O)O)C4)C3)C2)nc1N[C@H](C)c1ccc(Cl)cc1Cl (stereo partly drawn) [Example 73, 3-[(3R)-3-[1-[4-[[(1R)-1-(2,4-dichlorophenyl)ethyl]amino]-5-(1-hydroxypropyl)pyrimidin-2-yl]azetidin-3-yl]-1-piperidyl]-1-methyl-cyclobutanecarboxylic acid; 2,2,2-trifluoroacetic acid]",–,< 100 nM
"Cc1ncc(N2CC([C@H]3CCCN(CCO)C3)C2)nc1N[C@H](C)c1ccc(Cl)cc1Cl [Example 3, 2-((R)-3-(1-(6-(((R)-1-(2,4-dichlorophenyl)ethyl)amino)-5-methylpyrazin-2-yl)azetidin-3-yl)piperidin-1-yl)ethan-1-ol]",> 500 nM,–
"CC(C)C(O)c1cnc(N2CC([C@H]3CCCN([C@H]4C[C@](C)(C(=O)O)C4)C3)C2)nc1N[C@H](C)c1ccc(Cl)cc1Cl (stereo partly drawn) [Example 76, 3-[(3R)-3-[1-[4-[[(1R)-1-(2,4-dichlorophenyl)ethyl]amino]-5-(1-hydroxy-2-methyl-propyl)pyrimidin-2-yl]azetidin-3-yl]-1-piperidyl]-1-methyl-cyclobutanecarboxylic acid; 2,2,2-trifluoroacetic acid]",–,< 100 nM
"CCc1nc(N2CC([C@H]3CCCN(C4CC(C)(C(=O)O)C4)C3)C2)nc(N[C@H](C)c2ccc(Cl)cc2Cl)c1Cl (single isomer, unassigned) [Example 77]",–,< 100 nM
"C[C@@H](Nc1nc(N2CC([C@H]3CCCN([C@H]4C[C@](C)(C(=O)O)C4)C3)C2)ncc1C(O)C1CC1)c1ccc(Cl)cc1Cl (stereo partly drawn) [Example 70, 3-[(3R)-3-[1-[5-[cyclopropyl(hydroxy)methyl]-4-[[(1R)-1-(2,4-dichlorophenyl)ethyl]amino]pyrimidin-2-yl]azetidin-3-yl]-1-piperidyl]-1-methyl-cyclobutanecarboxylic acid; 2,2,2-trifluoroacetic acid]",–,< 100 nM
"C[C@@H](Nc1nc(N2CC([C@H]3CCCN([C@H]4C[C@](C)(C(=O)O)C4)C3)C2)ncc1Cl)c1ccc(Cl)cc1Cl [Example 12, (1R,3r)-3-((R)-3-(1-(5-chloro-4-(((R)-1-(2,4-dichlorophenyl)ethyl)amino)pyrimidin-2-yl)azetidin-3-yl)piperidin-1-yl)-1-methylcyclobutane-1-carboxylic acid]",< 100 nM,–

# The next lines start with the values.
"IC50 (Table 3, CCL22 1.5 nM)","IC50 (Table 5, CCL22 1.5 nM)",Compound
< 100 nM,–,"C[C@@H](Nc1nc(N2CC([C@H]3CCCN([C@H]4C[C@@H](C(=O)O)C4)C3)C2)ncc1Br)c1ccc(Cl)cc1Cl [Example 9, (1S,3s)-3-((R)-3-(1-(5-bromo-4-(((R)-1-(2,4-dichlorophenyl)ethyl)amino)pyrimidin-2-yl)azetidin-3-yl)piperidin-1-yl)cyclobutane-1-carboxylic acid]"
> 500 nM,–,"C[C@@H](Nc1cnc(C#N)c(N2CC([C@H]3CCCN([C@H]4C[C@@H](C(=O)O)C4)C3)C2)n1)c1ccc(Cl)cc1Cl [Example 4, (1S,3s)-3-((R)-3-(1-(3-cyano-6-(((R)-1-(2,4-dichlorophenyl)ethyl)amino)pyrazin-2-yl)azetidin-3-yl)piperidin-1-yl)cyclobutane-1-carboxylic acid]"
–,< 100 nM,"C[C@@H](Nc1nc(N2CC(C3CCCN(C4CC(CO)C4)C3C(=O)O)C2)ncc1Cl)c1ccc(Cl)cc1Cl (stereo partly drawn) [Example 88, 3-[1-[5-chloro-4-[[(1R)-1-(2,4-dichlorophenyl)ethyl]amino]pyrimidin-2-yl]azetidin-3-yl]-1-[3-(hydroxymethyl)cyclobutyl]piperidine-2-carboxylic acid; 2,2,2-trifluoroacetic acid]"
–,< 100 nM,"C[C@@H](Nc1nc(N2CC([C@H]3CCCN([C@H]4C[C@](C)(C(=O)O)C4)C3)C2)nc2ccc(F)cc12)c1ccc(Cl)cc1Cl [Example 65, 3-[(1R,3R)-3-[1-[4-[[(1R)-1-(2,4-dichlorophenyl)ethyl]amino]-6-fluoro-quinazolin-2-yl]azetidin-3-yl]-1-piperidyl]-1-methyl-cyclobutanecarboxylic acid; 2,2,2-trifluoroacetic acid]"
–,< 100 nM,"C[C@@H](Nc1nc(N2CC([C@H]3CCCN(C4CC(C)(C(=O)O)C4)C3)C2)nc2scnc12)c1ccc(Cl)cc1Cl (single isomer, unassigned) [Example 71, trifluoroacetic acid]"
< 100 nM,–,"C[C@@H](Nc1nc(N2CC([C@H]3CCCN(CCO)C3)C2)ncc1Br)c1ccc(F)cc1Cl [Example 43, 2-((R)-3-(1-(5-bromo-4-(((R)-1-(2-chloro-4-fluorophenyl)ethyl)amino)pyrimidin-2-yl)azetidin-3-yl)piperidin-1-yl)ethan-1-ol]"
< 100 nM,–,"Cc1cnc(N2CC([C@H]3CCCN([C@H]4C[C@@H](C(=O)O)C4)C3)C2)nc1N[C@H](C)c1ccc(Cl)cc1Cl [Example 17, (1S,3s)-3-((R)-3-(1-(4-(((R)-1-(2,4-dichlorophenyl)ethyl)amino)-5-methylpyrimidin-2-yl)azetidin-3-yl)piperidin-1-yl)cyclobutane-1-carboxylic acid]"

# Reference: US12098139B2, “Chemokine receptor modulators and uses thereof” (RAPT Therapeutics, Inc., priority 2018, dated 2024)
